From PMC6862323, “Substitution of Arginine 120 in Human D-Amino Acid Oxidase Favors FAD-Binding and Nuclear Mistargeting” (Frontiers in Molecular Biosciences, 2019)
Where two headings read alike, the source gives them in different places. Each block holds one molecule with its values, some of them ahead of it.

Columns and labels:
R120L hDAAO variant [1] = target: T1, R120L hDAAO variant (Homo sapiens, UniProt P14920, R120L); test: FAD and ligand binding by quenching of protein fluorescence, R120L hDAAO
T1 construct: His-tag (N); made in house; host or cells: E. coli BL21 (DE3) Star
Experimental: (§1) Protein fluorescence spectra were recorded between 300 and 400 nm, with excitation at 280 nm using a Jasco FP-750 instrument (excitation slit of 10 nm; emission slit of 5 nm) in 10 mM potassium phosphate, pH 8.0, 1% (v/v) glycerol, 5 mM 2-mercaptoethanol, […]

R120E hDAAO variant [2] = target: T2, R120E hDAAO variant (Homo sapiens, UniProt P14920, R120E); test: FAD and ligand binding by quenching of protein fluorescence, R120E hDAAO
T2 construct: His-tag (N); made in house; host or cells: E. coli BL21 (DE3) Star
Experimental: as §1

wild-type hDAAO [3] = conditions: cited from earlier work
R120E hDAAO variant [4] = target: T2, R120E hDAAO variant; test: Apparent kinetic parameters on D-amino acids (oxygen electrode), R120E hDAAO; type: biochemical; conditions: air saturation, 25°C, pH 8.5, 0.2 mM FAD
Experimental: (§2) The kinetic parameters were determined on different D-amino acids, employing increasing substrate concentrations (Molla et al., [2000], [2006]). The apparent kinetic parameters were calculated using the initial reaction rate according to a Michaelis–Menten equation using the Kaleidagraph software (Synergy Software, Reading, PA, USA).
(§3) The apparent kinetic parameters were calculated according to a Michaelis–Menten equation using the initial velocity values determined at increasing D-amino acid concentrations and a fixed O2 concentration (air saturation) at pH 8.5 and 25°C, in the presence of 0.2 mM FAD to avoid apoprotein formation for wild-type hDAAO.

wild-type hDAAO [5] = tested on: wild-type hDAAO; design: method as in Molla et al. (2006) and Murtas et al. (2017); conditions: air saturation, 25°C, pH 8.5, ref Molla et al. (2006) and Murtas et al. (2017), cited from earlier work; for Km: read-out: apparent Km
R120L hDAAO variant [6] = target: T1, R120L hDAAO variant; test: Apparent kinetic parameters on D-amino acids (oxygen electrode), R120L hDAAO; type: biochemical; conditions: air saturation, 25°C, pH 8.5, 0.2 mM FAD
Experimental: as §2, §3

[7] = Standard DAAO activity assay of purified hDAAO variants (oxygen electrode, 28 mM D-alanine); type: biochemical; conditions: pH 8.5, 25°C
U87 glioblastoma cells = test: Confocal analysis of cellular distribution of EYFP-hDAAO variants in transiently transfected U87 cells; type: cell-based, human
Experimental: Human U87 glioblastoma cells (ATCC) were cultured in DMEM supplemented with 10% fetal bovine serum, 1 mM sodium pyruvate, 2 mM L-glutamine, 1% non-essential amino acids, 1% penicillin/streptomycin, and 1% amphotericin B (Euroclone), at 37°C in 5% CO2. The cells were transfected either with the pEYFP-hDAAO-C3 construct (for the expression of the wild-type enzyme downstream of the enhanced yellow fluorescent protein, EYFP) (Sacchi et al., [2008], [2011]), the pEYFP-hDAAO(R120L)-C3, or the pEYFP-hDAAO(R120E)-C3 expression vectors. The latter constructs were obtained by mutagenesis using the QuikChange Lightning Site-Directed Mutagenesis Kit (Agilent), and the following primers: 5′-[…]-3′ and 5′-[…]-3′ for the R120E substitution, and 5-[…]-3′ and 5′-[…]-3′ for the R120L substitution.
For transient transfection, 2 ×10^4 cells were seeded into eight-well chamber slides (Sarstedt). At 24 h after seeding, cells were transfected with 2 μg plasmid DNA using a 4:1 ratio of FuGENE transfection reagent (Promega) to DNA. Then, 12.5 μL of transfection mix was added to 500 μL medium per well. Protein expression levels were monitored by using a fluorescence microscope (Olympus IX51) equipped with a FITC filter and by Western blot analysis using an anti-hDAAO antibody (Davids Biotechnologie) (Sacchi et al., [2008], [2011]).
At 24, 48, and 72 h after transfection, cells were washed twice with PBS and fixed with ice-cold 4% p-formaldehyde and 4% sucrose for 10 min at room temperature. After fixation, cells were washed twice with PBS and blocked by incubation in PBS supplemented with 0.2% Triton X-100 and 4% horse serum for 30 min at room temperature. Peroxisomes were stained using rabbit polyclonal anti-PMP70 (peroxisomal membrane protein 70, Sigma), diluted 1:500 in PBS, 0.1% Triton X-100, and 4% horse serum overnight at 4°C; they were then washed twice in PBS and 1% horse serum and incubated for 1 h at room temperature (light protected) with goat anti-rabbit Dylight 550 secondary antibodies (Abcam) diluted 1:400 in PBS, 0.1% Triton X-100, and 1.5% horse serum. Cells were then extensively washed in PBS and nuclei were stained with DRAQ5™ (Thermo Scientific) and diluted 1:500 in PBS for 10 min at room temperature in the dark. Cells were washed three times with PBS and stored in PBS at 4°C until imaging.
Immunostained cells were imaged using an inverted laser scanning confocal microscope (TCS SP5, Leica Microsystems), equipped with a 63.0 ×1.25 NA plan apochromatic oil immersion objective. Confocal image stacks were acquired using the Leica TCS software with a sequential mode to avoid interference between each channel and without saturating any pixel. Cells in 10–15 non-magnified optical fields were analyzed for each condition (i.e., different EYFP-hDAAO expression constructs at different times after transfection). The fluorescence signal corresponding to the overexpressed EYFP-hDAAO variants was monitored by excitation at 514 nm (yellow channel); the peroxisomal and nuclear cellular compartments were imaged by excitation at 546 nm (red channel) and 647 nm (blue channel), respectively.
U87 glioblastoma cells were transiently transfected with a pEYFP-hDAAO-C3 plasmid encoding for EYFP-hDAAO chimeric proteins harboring R, E, or L at position 120 of the flavoenzyme. […] A similar amount of transfected cells (expressing EYFP-hDAAO protein) was obtained for all three constructs (Table 4). The percentage of cells showing a cytosolic, peroxisomal, and nuclear localization of the flavoenzyme was determined by comparing the yellow fluorescence signal of EYFP-hDAAO variants with those of the markers PMP-70 (for peroxisomes) and DRAQ5™ dye (for nuclei, Figure 5). The amount of cytosolic wild-type EYFP-hDAAO decreased with time after transfection (28% of the signal is cytosolic at 72 h vs. 94% at 24 h), as did the amount of nuclear signal (Table 4 and Figure 6). […]

[8] = read-out: Benzoate Kd, first saturation phase
[9] = read-out: Benzoate Kd, second saturation phase

T2 sequence (P14920 whole entry R120E): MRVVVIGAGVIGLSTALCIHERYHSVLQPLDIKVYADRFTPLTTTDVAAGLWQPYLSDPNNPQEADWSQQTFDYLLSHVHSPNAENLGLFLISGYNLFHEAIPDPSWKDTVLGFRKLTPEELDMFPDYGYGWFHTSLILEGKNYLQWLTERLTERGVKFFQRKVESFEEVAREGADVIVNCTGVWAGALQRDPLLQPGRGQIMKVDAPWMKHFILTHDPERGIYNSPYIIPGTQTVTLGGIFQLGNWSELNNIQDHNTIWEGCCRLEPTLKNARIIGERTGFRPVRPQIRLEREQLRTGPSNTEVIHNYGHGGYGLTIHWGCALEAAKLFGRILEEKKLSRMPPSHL
T1 sequence (P14920 whole entry R120L): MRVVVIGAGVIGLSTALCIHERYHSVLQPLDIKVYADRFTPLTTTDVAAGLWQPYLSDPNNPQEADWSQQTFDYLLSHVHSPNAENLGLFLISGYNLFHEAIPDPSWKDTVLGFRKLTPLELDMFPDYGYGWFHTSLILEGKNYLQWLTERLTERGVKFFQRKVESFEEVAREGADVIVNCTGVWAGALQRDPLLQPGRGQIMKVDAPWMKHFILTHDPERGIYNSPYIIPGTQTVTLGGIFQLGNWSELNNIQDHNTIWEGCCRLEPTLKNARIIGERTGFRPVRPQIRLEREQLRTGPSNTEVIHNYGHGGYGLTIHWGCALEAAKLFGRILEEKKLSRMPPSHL

Kd (R120L hDAAO variant [1]; [8]): 0.00027 ± 0.00012 mM | Kd (R120L hDAAO variant [1]; [9]): 6.21 mM | Kd (R120E hDAAO variant [2]; [8]): 0.00016 ± 1e-05 mM | Kd (R120E hDAAO variant [2]; [9]): 7.98 mM | Kd (R120E hDAAO variant [2]; read-out: Kd for the second phase of binding): ~8 mM
Molecule: O=C(O)c1ccccc1 [Benzoate, benzoate]
Kd (wild-type hDAAO [3]; ref Murtas et al. (2017), read-out: Benzoate Kd, first saturation phase): 0.00033 ± 4e-05 mM | Kd (wild-type hDAAO [3]; ref Murtas et al. (2017), read-out: Benzoate Kd, second saturation phase): 2.59 mM | Kd (wild-type hDAAO [3]; ref Murtas et al., 2017, read-out: Kd for the second phase of binding): 2.6 mM

Km (R120E hDAAO variant [4]): 17.6 ± 3.5 mM | apparent kcat (R120E hDAAO variant [4]): 8.5 ± 0.4 s⁻¹ | Km (R120L hDAAO variant [6]): 26.7 ± 4.5 mM | apparent kcat (R120L hDAAO variant [6]): 11.3 ± 0.4 s⁻¹
Molecule: N[C@H](CO)C(=O)O [D-Ser, D-serine]
apparent kcat (wild-type hDAAO [5]): 3.0 ± 0.1 s⁻¹ | Km (wild-type hDAAO [5]): 7.5 ± 0.5 mM

Molecule: R120E: hDAAO variant with Arg120 substituted by glutamate (His-tagged from E. coli; EYFP-tagged in U87 cells)
Specific activity [7]: 21.0 U/mg protein | hDAAO cellular distribution: A, large cytosolic aggregates detected (U87 glioblastoma cells; 24 h after transfection): 29.7 % of transfected cells | hDAAO cellular distribution: C, cytosol (U87 glioblastoma cells; 24 h after transfection): 86.7 % of transfected cells | hDAAO cellular distribution: C/P, mixed, cytosol and peroxisomes (U87 glioblastoma cells; 24 h after transfection): 7.8 % of transfected cells | hDAAO cellular distribution: N, nucleus (U87 glioblastoma cells; 24 h after transfection): 36.7 % of transfected cells | hDAAO cellular distribution: P, peroxisomes (U87 glioblastoma cells; 24 h after transfection): 6.3 % of transfected cells | hDAAO cellular distribution: A, large cytosolic aggregates detected (U87 glioblastoma cells; 48 h after transfection): 31.3 % of transfected cells | hDAAO cellular distribution: C, cytosol (U87 glioblastoma cells; 48 h after transfection): 56.7 % of transfected cells | hDAAO cellular distribution: C/P, mixed, cytosol and peroxisomes (U87 glioblastoma cells; 48 h after transfection): 14.9 % of transfected cells | hDAAO cellular distribution: N, nucleus (U87 glioblastoma cells; 48 h after transfection): 27.6 % of transfected cells | hDAAO cellular distribution: P, peroxisomes (U87 glioblastoma cells; 48 h after transfection): 28.4 % of transfected cells | hDAAO cellular distribution: A, large cytosolic aggregates detected (U87 glioblastoma cells; 72 h after transfection): 18.2 % of transfected cells | hDAAO cellular distribution: C, cytosol (U87 glioblastoma cells; 72 h after transfection): 40.3 % of transfected cells | hDAAO cellular distribution: C/P, mixed, cytosol and peroxisomes (U87 glioblastoma cells; 72 h after transfection): 18.2 % of transfected cells | hDAAO cellular distribution: N, nucleus (U87 glioblastoma cells; 72 h after transfection): 24.0 % of transfected cells | hDAAO cellular distribution: P, peroxisomes (U87 glioblastoma cells; 72 h after transfection): 41.6 % of transfected cells

Molecule: C[C@@H](N)C(=O)O [D-Ala, D-alanine]
apparent kcat (wild-type hDAAO [5]): 5.2 ± 0.1 s⁻¹ | Km (wild-type hDAAO [5]): 1.3 ± 0.2 mM
